{
  "source": "patent US12472221B2",
  "about": "“Composition for inhibiting osteoclasts containing agastache rugosa extract as active ingredient, and use thereof” (Korea Institute of Oriental Medicine, priority 2019, dated 2025)",
  "key": {"[1]": {"system": "differentiation of bone marrow cell-derived macrophages (BMMs) into osteoclasts", "assay": "Osteoclast differentiation of bone marrow cell-derived macrophages (M-CSF/RANKL, TRAP staining, osteoclast count)", "format": "cell-based, mice", "settings": "compared with WEAR at the same concentration", "experimental": "Specifically, bone marrow cells of mice were cultured in α-MEM medium containing M-CSF (60 ng/ml) and 10% FBS for 3 days to obtain bone marrow cell-derived macrophages (BMMs), which were used as osteoclast progenitor cells. To generate osteoclasts, 1×10^4 pieces of the obtained BMMs were placed in per well of a 96-well plate, cultured for 4 days in a medium containing M-CSF (60 ng/ml) and RANKL (50 ng/ml), and the BMM were treated with hot water extract of Agastache rugosa (WEAR; 10, 33, 100, 200 μg/ml) or ethanol extract of Agastache rugosa (EEAR; 10, 33, 100 μg/ml) under the same culture condition. After fixing the cells with 10% formalin, TRAP (Tartrate-resistant acid phosphatase) staining was performed using naphthol AS-MS phosphate and Fast red violet LB salt, and TRAP-positive cells having three or more nuclei (osteoclasts) were counted. Data are presented as mean±standard deviation, and statistical analysis was performed using one-way ANOVA with Dunnett test, **p<0.01.\nIC50 (inhibitory concentration 50), the concentration showing 50% inhibition efficiency, was calculated using PraphPad Prism software.\nSpecifically, WEAR-PO, WEAR-ED, P0-3 kDA Fx, P0-10 kDA Fx, P0-30 kDA Fx, P0-100 kDA Fx, P0-300 kDA Fx […], respectively, and the osteoclast differentiation inhibitory effect was assessed in the same manner as in Example <3-1>."}, "[2]": {"system": "bone marrow cell-derived macrophages (BMMs)", "assay": "Cell viability of osteoclast progenitor cells (CCK-8)", "format": "cell-based, mice", "settings": "5 and 10 μg/ml, 2 days", "experimental": "Specifically, 1.2×10^4 pieces of bone marrow cell-derived macrophages (BMMs) were placed in per well of a 96-well plate, and then cultured for 2 days in a medium containing M-CSF (60 ng/ […] ) in which hot water extract of Agastache rugosa extract (WEAR; 5, 10, 20, 33, 100 and 200 μg/ml), ethanol extract of Agastache rugosa (EEAR; 10, 33 and 100 μg/ml) or isoagastachoside (5 and 10 μg/ml) samples were added. Cell viability was determined by measuring absorbance at 450 nm using Cell counting Kit-8 (CCK-8, Dojindo Inc.), percentage of untreated controls and data are presented as mean±standard deviation, and statistical analysis was performed using one-way ANOVA with Dunnett test, **p<0.01."}},
  "data": [
    {"smiles": "COc1ccc(-c2cc(=O)c3c(O)cc(O[C@@H]4O[C@H](CO)[C@@H](O)[C@H](O)[C@H]4OC(C)=O)cc3o2)cc1", "note": "[isoagastachoside]", "values": [
      {"measurement": "inhibitory effect on osteoclast differentiation (in words)", "setting": "[1]; 10 μg/ml", "result": "inhibited osteoclast differentiation very significantly compared to WEAR at the same concentration"},
      {"measurement": "inhibitory effect on osteoclast differentiation (in words)", "setting": "[1]; 5 and 10 μg/ml", "result": "better inhibitory effect on osteoclast differentiation than WEAR at the same concentration"},
      {"measurement": "effect on cell survival", "setting": "[2]", "result": "no effect in cell survival"}
    ]}
  ]
}
